Experimental data taken from patent US20220395549A1, “COMPOSITIONS OF THE OLEA EUROPAEA V. SYLVESTRIS WITH ANTIMICROBIAL EFFICACY” (TAPROGGE GMBH, priority 2019, published 2022).

What was measured:
S. aureus ATCC 6538 = experiment: quantitative suspension assay of mono-substances; format: cell-based, Staphylococcus aureus; details: for Number of CFUs: initial cell load 9.5 × 10^4 CFU/ml
Experimental: A stock solution was prepared by adding 0.1 ml methanol to 10.48 mg of hydroxytyrosol. After dissolving of the compound, the solution was quantitatively transferred into 4.9 ml water for injection (WFI), effective concentration of hydroxytyrosol: 2.0 mg/ml.
Using the stock solution, five (5) concentrations of hydroxytyrosol in a geometric series of 2 mg hydroxytyrosol/ml to 0.125 mg hydroxytyrosol/ml were tested in a quantitative suspension assay.
2 ml of the stock solution and the dilutions (V1 to V4), respectively, and a methanol-solution of 2% as a positive control were inoculated with 0.1 ml of a test suspension of S. aureus ATCC 6538, adjusted to about 2.0×10^5 CFU/0.1 ml, resulting in about 100,000 CFU/ml in the individual assays.
Samples (0.1 ml) were then taken at t 0, 12, 30, and 60 minutes as well as t 24 48, and 72 hours after inoculation and culturing at between 20-25° C., and were diluted with 0.9 ml of 0.9% NaCl solution. The samples were plated on blood agar plates, and incubated up to 5 days at between 30-35° C.
A stock solution was prepared at a concentration of 2 mg/ml of oleocanthal. The compound was dissolved by in ethanol (99.8%) and WFI was added.
Using the stock solution, concentrations of oleocanthal in a geometric series of 1 mg oleocanthal/ml to 0.125 mg oleocanthal/ml were tested in a quantitative suspension assay.
2 ml of the stock solution and the dilutions (V1 to V4), respectively, and a ethanol-solution of 2.85% as a positive control were inoculated with 0.055 ml of a test suspension of S. aureus ATCC 6538, adjusted to about 3.6×10^5 CFU/0.1 ml, resulting in about 99,000 CFU/ml in the individual assays.
A stock solution was prepared at a concentration of 1 mg/ml of oleacin. The compound was dissolved by in ethanol (99.8%) and WFI was added.
Using the stock solution, concentrations of oleacin at 0.25 mg oleacin/ml and 0.125 mg oleacin/ml were tested in a quantitative suspension assay.
2 ml of the stock solution and the dilutions (V1 and V2), respectively, and a ethanol-solution of 0.44% as a positive control were inoculated with 0.055 ml of a test suspension of S. aureus ATCC 6538, adjusted to about 3.5×10^5 CFU/0.1 ml, resulting in about 99,000 CFU/ml in the individual assays.
A stock solution was prepared by adding 0.1 ml chloroform to 25 mg of uvaol. After dissolving of the compound, the solution was quantitatively transferred into 12.4 ml water for injection (WFI), effective concentration of uvaol: 2.0 mg/ml.
Using the stock solution, five (5) concentrations of uvaol in a geometric series of 2 mg uvaol/ml to 0.125 mg uvaol/ml were tested in a quantitative suspension assay.
2 ml of the stock solution and the dilutions (V1 to V4), respectively, and a chloroform-solution of 0.8% as a positive control were inoculated with 0.1 ml of a test suspension of S. aureus ATCC 6538, adjusted to about 2.0×10^5 CFU/0.1 ml, resulting in about 100,000 CFU/ml in the individual assays.
A stock solution was prepared by adding 0.1 ml chloroform to 10.45 mg of erythrodiol. After dissolving of the compound, the solution was quantitatively transferred into 4.9 ml water for injection (WFI), effective concentration of erythrodiol: 2.0 mg/ml.
2 ml of the stock solution and the dilutions (V1 to V4), respectively, and a chloroform-solution of 2% as a positive control were inoculated with 0.1 ml of a test suspension of S. aureus ATCC 6538, adjusted to about 3.6×10^5 CFU/0.1 ml, resulting in about 100.000 CFU/ml in the individual assays.

[1] = solubility as encountered during the assays; format: physicochemical
Description: The reduction at the later points in time is due to the natural loss of viability of the bacteria.

solubility [1]: poor solubility
Structure (SMILES): CC1(C)CC[C@]2(CO)CC[C@]3(C)C(=CC[C@@H]4[C@@]5(C)CC[C@H](O)C(C)(C)[C@@H]5CC[C@]43C)[C@@H]2C1 [erythrodiol]
Number of CFUs (S. aureus ATCC 6538; 0.125 Ery/ml, t 0 min): >10^4 CFU/ml
Number of CFUs (S. aureus ATCC 6538; 0.125 Ery/ml, t 12 min): >10^4 CFU/ml
Number of CFUs (S. aureus ATCC 6538; 0.125 Ery/ml, t 30 min): >10^4 CFU/ml
Number of CFUs (S. aureus ATCC 6538; 0.125 Ery/ml, t 60 min): >10^4 CFU/ml
Number of CFUs (S. aureus ATCC 6538; 0.125 Ery/ml, t 24 h): >10^4 CFU/ml
Number of CFUs (S. aureus ATCC 6538; 0.125 Ery/ml, t 48 h): >10^4 CFU/ml
Number of CFUs (S. aureus ATCC 6538; 0.125 Ery/ml, t 72 h): >10^4 CFU/ml
Number of CFUs (S. aureus ATCC 6538; 0.25 Ery/ml, t 0 min): 2.8 × 10^4 CFU/ml
Number of CFUs (S. aureus ATCC 6538; 0.25 Ery/ml, t 12 min): 2.9 × 10^4 CFU/ml
Number of CFUs (S. aureus ATCC 6538; 0.25 Ery/ml, t 30 min): 2.0 × 10^4 CFU/ml
Number of CFUs (S. aureus ATCC 6538; 0.25 Ery/ml, t 60 min): 1.7 × 10^4 CFU/ml
Number of CFUs (S. aureus ATCC 6538; 0.25 Ery/ml, t 24 h): >10^4 CFU/ml
Number of CFUs (S. aureus ATCC 6538; 0.25 Ery/ml, t 48 h): >10^4 CFU/ml
Number of CFUs (S. aureus ATCC 6538; 0.25 Ery/ml, t 72 h): >10^4 CFU/ml
Number of CFUs (S. aureus ATCC 6538; 0.5 Ery/ml, t 0 min): 1.9 × 10^4 CFU/ml
Number of CFUs (S. aureus ATCC 6538; 0.5 Ery/ml, t 12 min): 2.0 × 10^4 CFU/ml
Number of CFUs (S. aureus ATCC 6538; 0.5 Ery/ml, t 30 min): 1.8 × 10^4 CFU/ml
Number of CFUs (S. aureus ATCC 6538; 0.5 Ery/ml, t 60 min): 1.0 × 10^4 CFU/ml
Number of CFUs (S. aureus ATCC 6538; 0.5 Ery/ml, t 24 h): >10^4 CFU/ml
Number of CFUs (S. aureus ATCC 6538; 0.5 Ery/ml, t 48 h): >10^4 CFU/ml
Number of CFUs (S. aureus ATCC 6538; 0.5 Ery/ml, t 72 h): >10^4 CFU/ml
Number of CFUs (S. aureus ATCC 6538; 1.0 Ery/ml, t 0 min): <100 CFU/ml
Number of CFUs (S. aureus ATCC 6538; 1.0 Ery/ml, t 12 min): <100 CFU/ml
Number of CFUs (S. aureus ATCC 6538; 1.0 Ery/ml, t 30 min): <100 CFU/ml
Number of CFUs (S. aureus ATCC 6538; 1.0 Ery/ml, t 60 min): <100 CFU/ml
Number of CFUs (S. aureus ATCC 6538; 1.0 Ery/ml, t 24 h): 1.7 × 10^4 CFU/ml
Number of CFUs (S. aureus ATCC 6538; 1.0 Ery/ml, t 48 h): 1.0 × 10^4 CFU/ml
Number of CFUs (S. aureus ATCC 6538; 1.0 Ery/ml, t 72 h): 8.8 × 10^3 CFU/ml
Number of CFUs (S. aureus ATCC 6538; 2.0 Ery/ml, t 0 min): <100 CFU/ml
Number of CFUs (S. aureus ATCC 6538; 2.0 Ery/ml, t 12 min): <100 CFU/ml
Number of CFUs (S. aureus ATCC 6538; 2.0 Ery/ml, t 30 min): <100 CFU/ml
Number of CFUs (S. aureus ATCC 6538; 2.0 Ery/ml, t 60 min): <100 CFU/ml
Number of CFUs (S. aureus ATCC 6538; 2.0 Ery/ml, t 24 h): 8.2 × 10^3 CFU/ml
Number of CFUs (S. aureus ATCC 6538; 2.0 Ery/ml, t 48 h): <100 CFU/ml
Number of CFUs (S. aureus ATCC 6538; 2.0 Ery/ml, t 72 h): <100 CFU/ml
antimicrobial effect, summary in words (S. aureus ATCC 6538; detection limit of the assay 100 CFU/ml): strong effect after incubation at concentrations of 2.0 Ery/ml
